Legend:
[1] = target: T1, AtPFA-DSP1^49–215 (Arabidopsis thaliana, UniProt Q9ZVN4, C150S); assay: X-ray crystal structure (soak); assay type: binding; settings: active site
T1 construct: core catalytic domain, residues 49-215; N-terminal 6xHis-MBP tag cut with TEV protease; E. coli; monomer in solution

[2] = target: T2, AtPFA-DSP1 (full-length) (Arabidopsis thaliana, UniProt Q9ZVN4); assay: malachite green Pi release; assay type: biochemical; settings: pH 7.2, 30 °C, 100 mM KCl, 0.8 mM MgCl2
T2 construct: full-length (codon-optimized cDNA, Genscript); pDest-566, N-terminal 6xHis-MBP tag cut with TEV protease; E. coli
T2 sequence (Q9ZVN4 whole entry): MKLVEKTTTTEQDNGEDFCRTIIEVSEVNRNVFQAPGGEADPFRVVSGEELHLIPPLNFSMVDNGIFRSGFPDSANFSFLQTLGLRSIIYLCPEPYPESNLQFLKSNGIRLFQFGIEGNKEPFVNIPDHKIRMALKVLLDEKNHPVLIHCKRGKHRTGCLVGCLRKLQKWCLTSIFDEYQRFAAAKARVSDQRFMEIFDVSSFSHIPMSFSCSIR

T1 sequence (Q9ZVN4 49-215 C150S): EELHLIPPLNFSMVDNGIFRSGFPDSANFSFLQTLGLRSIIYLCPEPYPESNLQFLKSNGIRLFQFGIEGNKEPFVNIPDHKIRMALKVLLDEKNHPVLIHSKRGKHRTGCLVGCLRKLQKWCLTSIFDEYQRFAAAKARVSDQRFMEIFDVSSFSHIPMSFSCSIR

## O=P(O)(O)O[C@@H]1[C@@H](OP(=O)(O)OP(=O)(O)O)[C@H](OP(=O)(O)O)[C@@H](OP(=O)(O)O)[C@@H](O)[C@H]1OP(=O)(O)O [5-PP-InsP4, 5-diphosphoinositol 1,3,4,6-tetrakisphosphate]
[1]; beta-IN and beta-OUT poses, the latter together with Pi
  X-ray crystal structure (soak): instructive crystals of AtPFA-DSP1 in complex with 5-PP-InsP4

## O=P(O)(O)O[C@H]1[C@@H](OP(=O)(O)O)[C@@H](OP(=O)(O)O)[C@H](OP(=O)(O)OP(=O)(O)O)[C@@H](OP(=O)(O)O)[C@@H]1OP(=O)(O)O [6-InsP7, 6-diphosphoinositol 1,2,3,4,5-pentakisphosphate]
[2]
  Km: (c), 6-InsP7

## O=P(O)(O)O[C@H]1[C@@H](OP(=O)(O)O)[C@H](OP(=O)(O)O)[C@@H](OP(=O)(O)OP(=O)(O)O)[C@H](OP(=O)(O)O)[C@H]1OP(=O)(O)O [5-InsP7, 5-diphosphoinositol 1,2,3,4,6-pentakisphosphate]
[1]; substrate-trapping mutant, displaces Pi
  X-ray crystal structure (soak): it could now be successfully substituted by 5-InsP7

— publication PMC9038691, “A structural exposé of noncanonical molecular reactivity within the protein tyrosine phosphatase WPD loop” (Nature communications, 2022)
